Experimental data reported in article PMC7588595, “Small-molecule active pharmaceutical ingredients of approved cancer therapeutics inhibit human aspartate/asparagine-β-hydroxylase” (Bioorganic & Medicinal Chemistry, 2020).
Where a name gives a salt, the structure may show the parent alone. Read-outs that look alike come from different tables or passages of the source.

Molecular target: T1, human AspH (His6-AspH315–758) (Homo sapiens, UniProt Q12797)
T1 construct: N-Terminally His6-tagged human AspH315–758 (His6-AspH315–758) was produced in Escherichia coli BL21 (DE3) cells; made in house; host or cells: Escherichia coli BL21 (DE3), pET-28a(+) vector
T1 sequence (Q12797 315-758): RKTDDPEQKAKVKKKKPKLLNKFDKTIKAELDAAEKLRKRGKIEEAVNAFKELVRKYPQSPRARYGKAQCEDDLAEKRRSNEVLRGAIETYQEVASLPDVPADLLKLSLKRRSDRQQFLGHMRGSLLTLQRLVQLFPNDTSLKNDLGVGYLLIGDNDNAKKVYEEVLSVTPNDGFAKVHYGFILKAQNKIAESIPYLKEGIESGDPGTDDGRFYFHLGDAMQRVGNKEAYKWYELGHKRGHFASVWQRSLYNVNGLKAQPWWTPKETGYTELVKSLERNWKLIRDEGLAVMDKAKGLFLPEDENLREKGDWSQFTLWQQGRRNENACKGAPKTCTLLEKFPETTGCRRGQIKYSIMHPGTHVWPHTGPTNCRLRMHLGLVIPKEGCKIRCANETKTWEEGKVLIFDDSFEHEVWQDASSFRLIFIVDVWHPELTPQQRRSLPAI
Assay: SPE-MS AspH inhibition assay (hFX-CP101-119 substrate hydroxylation)
Format: biochemical

[1] = AspH-inhibitor screening, 384-well Plate 1
[2] = AspH-inhibitor screening, 384-well Plate 1, substrate conversion
[3] = AspH-inhibitor screening, Plate 1-duplicate
[4] = AspH-inhibitor screening, Plate 1-duplicate, substrate conversion

SMILES	Plate 1 (% inhibition) [1]	Plate 1 (% conversion) [2]	Plate 1-duplicate (% inhibition) [3]	Plate 1-duplicate (% conversion) [4]	Plate 1 (% conversion)	Plate 1 (% inhibition)	Plate 1-duplicate (% conversion)	Plate 1-duplicate (% inhibition)
O=c1[nH]c(=O)n([C@H]2C[C@H](O)[C@@H](CO)O2)cc1C(F)(F)F [Trifluridine]	1.86%	48.89%	-0.91%	52.49%				
COc1ccc(-c2ccc3c(N4CCOC[C@@H]4C)nc(N4CCOC[C@@H]4C)nc3n2)cc1CO [AZD8055]	0.34%	49.59%	4.92%	49.60%				
Oc1nc(-c2ccc(C(F)(F)F)cc2)nc2c1CSCC2 [XAV-939]	0.04%	49.73%	0.58%	51.75%				
COc1cc(O)c2c(c1)/C=C/C[C@H](O)[C@H](O)C(=O)/C=C\C[C@H](C)OC2=O [(5Z)-7-Oxozeaenol]	21.38%	39.88%	23.66%	40.31%				
CO[C@@]12[C@H](COC(N)=O)C3=C(C(=O)C(C)=C(N)C3=O)N1C[C@@H]1N[C@@H]12 [Mitomycin]	1.59%	49.02%	2.59%	50.76%				
CCCC(CCC)C(=O)O [Valproic acid]	16.50%	42.13%	5.73%	49.20%				
O=C(O)C(=O)O.[NH-][C@@H]1CCCC[C@H]1[NH-].[Pt+2] [Oxaliplatin]	8.19%	45.97%	11.28%	46.45%				
Cn1cc(C2=C(c3cn(C4CCN(Cc5ccccn5)CC4)c4ccccc34)C(=O)NC2=O)c2ccccc21 [Enzastaurin]	-3.95%	51.57%	-0.48%	52.28%				
Cl.Cn1c(CCCC(=O)O)nc2cc(N(CCCl)CCCl)ccc21 [Bendamustine hydrochloride]	2.89%	48.41%	4.93%	49.60%				
CC(C)(C)c1cc(NC(=O)Nc2ccc(-c3cn4c(n3)sc3cc(OCCN5CCOCC5)ccc34)cc2)no1 [AC220_Quizartinib]	-19.26%	58.64%	-18.68%	61.31%				
Oc1ncnc2[nH]ncc12 [Allopurinol]	-0.61%	50.03%	4.67%	49.73%				
CC(C)(C)NC(=O)[C@H]1CC[C@H]2[C@@H]3CC[C@H]4NC(=O)C=C[C@]4(C)[C@H]3CC[C@]12C [Finasteride]	-3.25%	51.25%	5.03%	49.55%				
Cl.NC(=O)c1cccc2cn(-c3ccc([C@@H]4CCCNC4)cc3)nc12 [MK-4827, HCl salt]	7.39%	46.34%	9.73%	47.22%				
Cc1ccc(Nc2nccc(N(C)c3ccc4c(C)n(C)nc4c3)n2)cc1S(N)(=O)=O.Cl [Pazopanib hydrochloride]	-0.37%	49.92%	-28.79%	66.32%				
COc1cc2c(Nc3ccc(Br)cc3F)ncnc2cc1OCC1CCN(C)CC1 [Vandetanib]	-0.26%	49.87%	1.85%	51.12%				
CC[C@]1(O)C[C@@H]2CN(CCc3c([nH]c4ccccc34)[C@@](C(=O)OC)(c3cc4c(cc3OC)N(C)[C@H]3[C@@](O)(C(=O)OC)[C@H](OC(C)=O)[C@]5(CC)C=CCN6CC[C@]43[C@@H]65)C2)C1 [Vinblastine sulfate]	-22.64%	60.21%	-30.80%	67.31%				
Cn1c(=O)c(F)c(Nc2ccc(I)cc2F)c2c(=O)n(C[C@@H](O)CO)cnc21 [TAK-733]	-22.47%	60.13%	-22.24%	63.07%				

SMILES	Plate 1 (% inhibition) [1]	Plate 1 (% conversion) [2]	Plate 1-duplicate (% inhibition) [3]	Plate 1-duplicate (% conversion) [4]	Plate 1 (% conversion)	Plate 1 (% inhibition)	Plate 1-duplicate (% conversion)	Plate 1-duplicate (% inhibition)
CC(C)C[C@H](NC(=O)CNC(=O)c1cc(Cl)ccc1Cl)B1OC(=O)C(CC(=O)O)(CC(=O)O)O1 [Ixazomib citrate]	72.42%	16.31%	72.94%	15.87%				
O=C(Nc1ccncc1)C(=O)c1cn(Cc2ccc(Cl)cc2)c2ccccc12 [Indibulin]	45.36%	28.80%	2.65%	50.73%				
CC(=O)OC[C@H]1O[C@@H](n2ccc(=O)[nH]c2=O)[C@H](OC(C)=O)[C@@H]1OC(C)=O [Uridine triacetate]	4.05%	47.88%	7.04%	48.55%				
COC(=O)C[C@](O)(CCCC(C)(C)O)C(=O)O[C@@H]1C(OC)=C[C@]23CCCN2CCc2cc4c(cc2[C@H]13)OCO4 [Homoharringtonine]	6.00%	46.98%	5.43%	49.35%				
COc1cc(Nc2ncc3c(n2)-c2ccc(Cl)cc2C(c2c(F)cccc2OC)=NC3)ccc1C(=O)O [MLN8237_Alisertib]	2.09%	48.78%	7.11%	48.51%				
C[C@]12CC[C@@H]3c4ccc(OC(=O)N(CCCl)CCCl)cc4CC[C@H]3[C@@H]1CC[C@@H]2OP(=O)(O)O [Estramustine sodium phosphate]					17.18%	70.54%	20.11%	64.39%
CN(C)/N=N/c1[nH]cnc1C(N)=O [Dacarbazine]	-0.11%	49.80%	7.93%	48.11%				
C=CCc1cccc(/C=N/NC(=O)CN2CCN(Cc3ccccc3)CC2)c1O [PAC-1]	3.72%	48.03%	-0.37%	52.23%				
CN(c1ccccc1CNc1nc(Nc2ccc3c(c2)CC(=O)N3)ncc1C(F)(F)F)S(C)(=O)=O [PF 431396]	1.90%	48.87%	-4.64%	54.34%				
CS(=O)(=O)c1ccc(C(=O)Nc2ccc(Cl)c(-c3ccccn3)c2)c(Cl)c1 [Vismodegib]	10.42%	44.94%	2.79%	50.66%				
COc1cc2nccc(Oc3ccc(NC(=O)NC4CC4)c(Cl)c3)c2cc1C(N)=O [Lenvatinib]	-19.98%	58.98%	-15.77%	59.86%				
CC(C)c1c(C(=O)Nc2ccccc2)c(-c2ccccc2)c(-c2ccc(F)cc2)n1CC[C@@H](O)C[C@@H](O)CC(=O)[O-].CC(C)c1c(C(=O)Nc2ccccc2)c(-c2ccccc2)c(-c2ccc(F)cc2)n1CC[C@@H](O)C[C@@H](O)CC(=O)[O-].[Ca+2] [Atorvastatin Ca]						0.42%		-1.82%
CNC(=O)c1cc(Oc2ccc(NC(=O)Nc3cc(C(C)(C)C)nn3-c3ccc4ncccc4c3)c(F)c2)ccn1 [DCC-2036_Rebastinib]	0.16%	49.67%	3.62%	50.25%				
CCc1cc2c(cc1N1CCC(N3CCOCC3)CC1)C(C)(C)c1[nH]c3cc(C#N)ccc3c1C2=O [Alectinib]	-0.39%	49.93%	8.49%	47.83%				
Cl.O=C(/C=C/c1cccnc1)NCCCCC1CCN(C(=O)c2ccccc2)CC1 [FK-866 HCl_Daporinad]	2.15%	48.76%	-6.78%	55.40%				
C[C@@H](Oc1cc(-c2cnn(C3CCNCC3)c2)cnc1N)c1c(Cl)ccc(F)c1Cl [PF-2341066 (Crizotinib)]	-4.19%	51.68%	-4.98%	54.51%				
C[C@@H]1C[C@H]2[C@@H]3CCC4=CC(=O)C=C[C@]4(C)[C@@]3(F)[C@@H](O)C[C@]2(C)[C@@]1(O)C(=O)CO [Dexamethasone (Decadron)]	0.59%	49.48%	1.33%	51.38%				
